The results in this text go back to patent publication US9234025B2, “Extracellular allosteric inhibitor binding domain from a tyrosine kinase receptor” (SANOFI, priority 2009, dated 2016).

The test system of assay [1] is cognate receptor of >100 distinct ligands. Nature of the assay: SPA selectivity, >100 distinct ligands to their cognate receptor. Format: binding. The conditions noted are these: ligands with related structural homology or entirely different chemical composition.
The target in assay [2] is T1, FGFR1 (Homo sapiens, UniProt P11362).
T1 construct: V5/His (encoded by the vector); expressed in transfected cells; host or cells: murine pre-B 300-19 cells
T1 sequence (P11362 22-822): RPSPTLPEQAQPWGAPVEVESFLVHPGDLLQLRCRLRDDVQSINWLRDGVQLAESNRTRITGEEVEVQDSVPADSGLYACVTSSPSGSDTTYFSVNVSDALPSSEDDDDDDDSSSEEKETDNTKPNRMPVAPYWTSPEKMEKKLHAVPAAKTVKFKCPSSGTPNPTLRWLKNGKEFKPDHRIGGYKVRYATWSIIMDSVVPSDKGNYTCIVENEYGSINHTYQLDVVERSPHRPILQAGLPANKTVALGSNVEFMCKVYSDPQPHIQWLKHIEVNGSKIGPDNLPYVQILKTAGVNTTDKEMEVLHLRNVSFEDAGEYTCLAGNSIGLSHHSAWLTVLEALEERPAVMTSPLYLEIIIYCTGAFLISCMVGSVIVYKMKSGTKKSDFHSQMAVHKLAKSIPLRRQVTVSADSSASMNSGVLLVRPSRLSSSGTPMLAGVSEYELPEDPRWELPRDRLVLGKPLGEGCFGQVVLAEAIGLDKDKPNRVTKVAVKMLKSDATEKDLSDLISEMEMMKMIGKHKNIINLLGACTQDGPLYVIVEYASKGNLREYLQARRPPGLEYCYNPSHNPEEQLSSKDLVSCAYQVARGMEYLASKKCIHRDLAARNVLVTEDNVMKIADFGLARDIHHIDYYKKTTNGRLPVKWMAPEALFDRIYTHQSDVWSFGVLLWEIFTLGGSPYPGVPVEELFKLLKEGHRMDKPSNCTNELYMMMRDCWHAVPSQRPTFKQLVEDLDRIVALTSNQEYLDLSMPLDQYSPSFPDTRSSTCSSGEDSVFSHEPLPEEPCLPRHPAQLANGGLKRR
Nature of the assay: AlexaFluor488-FGF2 binding on FGFR1-transfected 300-19 cells (flow cytometry). Conditions: SSR 300 nM; FGF2 10 ng/ml; murine pre-B 300-19 cells. Here is the method: (§1) FGF2 was labeled with Alexa Fluor 488 C5-maleimide (Invitrogen, A10254) following purchaser recommendations.
(§2) This AF488-FGF2 was used at 10 ng/ml in binding experiments on murine pre-B 300-19 cells transfected with FGFR1 or FGFR4 constructs in pEF6-V5/His Topo plasmids (Invitrogen). SSR (300 nM final) was pre-incubating 20 min with cells in RPMI 1640 (Invitrogen, 32404-014) with 10% FCS (Hyclone, SH30070.03), 2 mM glutamine, MEM non-essential amino-acid 1× (Gibco, 11140-035), MEM sodium pyruvate 1× (Gibco, 11360-039) and […] monothioglycerol (Sigma, M6145) at 4° C. under 150 rpm agitation. Then, FGF2 (10 ng/ml final) is added for 30 min and binding is measured using a FACS Calibur flow cytometer (Beckton Dickinson). Fluorescence median for each condition is also analysed.

Assay [3] concerns the target T2, FGFR4 (Homo sapiens, UniProt P22455).
T2 construct: expressed in transfected cells; host or cells: murine pre-B 300-19 cells
The assay is described as follows: AlexaFluor488-FGF2 binding on FGFR4-transfected 300-19 cells (flow cytometry). The conditions noted are these: SSR 300 nM; FGF2 10 ng/ml; murine pre-B 300-19 cells. Here is the method:
as §1, §2

Assay [4] deals with T3, FGFR2^WT (Homo sapiens, UniProt P21802).
T3 construct: expressed in transfected cells
T3 sequence (P21802 22-821): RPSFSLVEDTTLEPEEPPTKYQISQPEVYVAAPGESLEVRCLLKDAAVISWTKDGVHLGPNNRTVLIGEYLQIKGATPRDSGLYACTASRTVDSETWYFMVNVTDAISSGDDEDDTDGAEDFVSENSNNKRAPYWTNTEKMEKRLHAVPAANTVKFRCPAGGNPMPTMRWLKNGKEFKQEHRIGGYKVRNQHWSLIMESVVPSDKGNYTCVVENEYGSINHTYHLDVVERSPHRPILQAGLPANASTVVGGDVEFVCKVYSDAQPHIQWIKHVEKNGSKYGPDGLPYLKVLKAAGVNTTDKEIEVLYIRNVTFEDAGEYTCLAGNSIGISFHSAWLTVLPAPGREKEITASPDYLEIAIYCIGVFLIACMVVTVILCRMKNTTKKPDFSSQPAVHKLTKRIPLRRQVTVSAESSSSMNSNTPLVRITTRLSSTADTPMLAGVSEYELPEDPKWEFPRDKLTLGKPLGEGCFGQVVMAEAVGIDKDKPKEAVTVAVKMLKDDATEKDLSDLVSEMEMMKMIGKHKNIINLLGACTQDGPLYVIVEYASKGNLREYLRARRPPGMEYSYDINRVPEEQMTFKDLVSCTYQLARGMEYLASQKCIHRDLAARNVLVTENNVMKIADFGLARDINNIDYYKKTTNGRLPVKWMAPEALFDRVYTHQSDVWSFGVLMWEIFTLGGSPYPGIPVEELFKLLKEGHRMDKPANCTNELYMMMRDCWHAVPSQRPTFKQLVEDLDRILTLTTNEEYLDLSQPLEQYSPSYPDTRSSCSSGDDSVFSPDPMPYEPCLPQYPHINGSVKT
Nature of the assay: FGF2-induced ERK1/2 phosphorylation in HEK293 cells, FGFR2 WT. It counts as cell-based. Conditions: stable HEK293 FGFR2^WT cells; FGF2 0.5 ng/ml 5 min; average±sem, three experiments; read-out: IC50 value, inhibition of FGF2 induced ERK1/2 phosphorylation. Here is the method:
HEK293 cells were either transiently of stably transfected (using FuGENE 6, Roche) with hFGFR2IIIca or hFGFR2IIIca-Y328D cloned in pcDNA3 (Invitrogen). Stably transfected cells were grown in G418 (400 μg/ml) containing medium. Before stimulation, the cells were starved overnight in DMEM (0% serum), and pre-incubated with […] at the required concentration. The cells were subsequently stimulated with FGF2 (concentration between 0.5-10 ng/ml) for 5 min at 37° C. with or without SSR or SU5402 at 1 μM. After washing with ice-cold phosphate-buffered saline containing phosphatase inhibitors (Roche), cells were lysed in RIPA buffer (Tris 30 mM HCl pH 7.5, 150 mM NaCl, 1 mM EDTA, 1% triton-X, 0.5% w/v deoxycholate, containing phophatase and protease inhibitors as described by the manufacturer (Roche)). Cell lysates were centrifuged at 12,000 g for 10 min, and the supernatants were collected. Proteins were separated on Novex polyacrylamide gels (Invitrogen, Carlsbad, Calif.) and subsequently transferred onto Hybond ECL nitrocellulose membranes (Amersham Pharmacia). Following incubation with 5% non-fat milk powder in PBS, the membranes were incubated overnight at 4° C. with the following antibodies: phospho-ERK1/2 (CST:9101), phospho-FRS2 (CST:3861), phospho-PLCγ (CST:2821) and FGFR2 (F0300, Sigma).

The subject of assay [5] is HUVEC. The assay is described as follows: HUVEC proliferation. It counts as cell-based, human. The conditions noted are these: FGFR1β3c-driven; ATP content after 3 days. Here is the method: Confluent HUVEC cells are harvested and 5 10^4 cells in 100 μl RPMI 1640 (Invitrogen, 32404-014) with 0.5% FCS (Hyclone, SH30070.03), 2 mM glutamine, MEM non-essential amino-acid 1× (Gibco, 11140-035), MEM sodium pyruvate 1× (Gibco, 11360-039) are seeded per well in 96-well collagen 1-coated plates (Beckton Dickinson, 354650) overnight. Then, medium is removed and replace by 50 μl of medium that contains 2×FGF2 (R&D, 234-FSE-025), FGF4 (R&D, 235-F4-025) or FGF-19 (in house produced) and 50 μl of 2×SSR (200 or 600 nM). Cells were incubated in CO2 chamber at 37° C. for 3 days and proliferation is evaluated by quantifying ATP content with 100 μl of “Cell Titer Glo Luminescent cell viability” kit (Promega, G7571).

T2 sequence (P22455 22-802): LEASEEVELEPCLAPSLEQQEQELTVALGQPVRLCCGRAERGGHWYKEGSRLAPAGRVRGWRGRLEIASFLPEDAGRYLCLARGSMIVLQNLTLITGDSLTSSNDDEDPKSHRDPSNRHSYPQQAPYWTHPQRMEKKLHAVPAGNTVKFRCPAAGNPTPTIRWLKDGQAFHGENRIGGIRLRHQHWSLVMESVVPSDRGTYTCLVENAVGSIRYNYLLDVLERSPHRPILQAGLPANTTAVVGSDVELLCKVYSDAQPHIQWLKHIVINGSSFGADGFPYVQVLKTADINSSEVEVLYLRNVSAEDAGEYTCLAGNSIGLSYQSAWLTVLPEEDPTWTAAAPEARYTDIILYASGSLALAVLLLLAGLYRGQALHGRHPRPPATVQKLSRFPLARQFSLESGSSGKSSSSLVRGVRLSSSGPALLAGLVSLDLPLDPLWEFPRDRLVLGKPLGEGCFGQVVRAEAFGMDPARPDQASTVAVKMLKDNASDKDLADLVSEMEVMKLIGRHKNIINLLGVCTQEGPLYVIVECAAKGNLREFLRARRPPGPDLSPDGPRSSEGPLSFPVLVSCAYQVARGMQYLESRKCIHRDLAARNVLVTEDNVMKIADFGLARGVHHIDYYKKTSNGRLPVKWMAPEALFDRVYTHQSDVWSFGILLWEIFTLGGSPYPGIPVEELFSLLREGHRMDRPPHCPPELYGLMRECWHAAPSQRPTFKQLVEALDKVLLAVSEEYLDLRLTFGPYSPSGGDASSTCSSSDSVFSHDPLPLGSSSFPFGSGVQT

On to `COc1c(C)c(C(=O)c2ccc(N)c(C(=O)[O-])c2)n2ccccc12.[Na+]` [SSR], for which the “binding of >100 distinct ligands to their cognate receptor” value in assay [1] is “not inhibiting”. Besides, in assay [2], the “competition with AlexaFluor488-labelled FGF2 binding to FGFR1” value is “not able to compete this binding”. The “competition with AlexaFluor488-labelled FGF2 binding to FGFR4” value in assay [3] is “not able to compete this binding”. Moreover, the IC50 in assay [4] amounted to 28 ± 12 nM. Besides, the “FGF2-induced HUVEC proliferation” value in assay [5] is recorded as “able to inhibit FGF2-induced HUVEC proliferation”.
